Results: article PMC7496268, “Activity‐Directed Synthesis of Inhibitors of the p53/hDM2 Protein–Protein Interaction” (Chemistry (Weinheim an Der Bergstrasse, Germany), 2020)

Legend:
hDM2 [1] = target: T1, hDM2 (Homo sapiens, UniProt Q00987); test: biochemical; parameters: fluorescence anisotropy competition, displacement of fluorescein-labelled p53 15-31 peptide from hDM2; conditions: read-out: FA IC50
T1 construct: gene MDM2; 15N-labelled for NMR; the anisotropy footnote prints hDM2_17-25, apparently a misprint of 17-125
Protocol: The assay was then implemented similarly to the examples above to give final compound concentrations between 160 – 0.08 µM. IC50 values were determined and curves were fit in Origin Pro 2019b using a non-linear curve fitting with the dose response fitting procedure and Levenberg Marquardt iteration algorithm. 17 5.2 Fluorescence anisotropy assays The fluorescein-labelled p5315-31 Flu transactivation domain peptide (Ac-[…](Flu)- NH2) was purchased from Peptide Synthetics. The assay was carried out using Perkin-Elmer 384-well Opti-plate assay plates (6007270). Fluorescence anisotropy assays were performed in a buffer containing 40 mM phosphate pH 7.5, 200 mM NaCl and 0.02 mg/mL bovine serum albumin (PBSA). Results were collected using a Perkin-Elmer Envision 2103 Multilabel Reader using a 431 nm mirror, 480(104) nm excitation filter, and 535(208) and 535(209) nm emission filters after 2.5 or 24 hours of incubation at room temperature. Test well anisotropy values were then calculated using the blank corrected S and P channel values using the following formula: […]

hDM2 [2] = target: T1, hDM2; test: fluorescence anisotropy competition, displacement of fluorescein-labelled p53 tracer peptide; type: binding; conditions: for IC50: read-out: Fluorescence anisotropy^[c] IC50
Source text: fluorescence anisotropy competition, displacement of fluorescein-labelled p53 tracer peptide on hDM2

hDM2 [3] = target: T1, hDM2; test: 1H-15N HSQC NMR titration; conditions: read-out: NMR Binding^[d] (K d/μM)
Source text: 1H-15N HSQC NMR titration on hDM2

Row | SMILES | IC50 (hDM2 [1]) [µM] | IC50 (hDM2 [2]) [µM] | other results
1 | O=C(CO[C@H]1CCc2cc(Cl)ccc21)N1CC[C@H](c2ccccc2)C1 [ent-P2a] | 26 ± 3.8 |  | 
2 | CN(C(=O)C(=O)c1ccc(Cl)cc1)c1ccc(Cl)cc1 [P4] |  | > 30 | Kd (hDM2 [3]): 35 ± 16 µM
3 | O=C1Nc2cc(Cl)ccc2C1c1c[nH]c2cc(Cl)ccc12 (centres unmarked) [P6] |  | 0.94 ± 0.03 | 
4 | O=C(COC1CCCC1)N1CCC(c2ccccc2)C1 (centres unmarked) [SI1] | > 200 |  | 
5 | O=C(CO[C@@H]1CCc2cc(Cl)ccc21)N1CC[C@@H](c2ccccc2)C1 [P2a] | 28.2 ± 3 |  | 
6 | O=C(COC1CCc2cc(Cl)ccc21)N1CCCC1 (centres unmarked) [SI2] | > 200 |  | 
7 | O=C(CO[C@H]1CCc2cc(Cl)ccc21)N1CC[C@@H](c2ccccc2)C1 [P2b] | 36.5 ± 3.5 |  | 
8 | CN1C(=O)C(c2ccc(Cl)cc2)c2cc(Cl)ccc21 (centres unmarked) [P3] |  | > 100 | 
9 | O=C1Nc2cc(Cl)ccc2C12CC2c1ccc(Cl)cc1 (centres unmarked) [P5] |  |  | Fluorescence anisotropy^[c] IC50 [μM] (hDM2 [2]; […] hDM2, […] tracer, […] BSA, […] NaCl, […] DMSO, […] phosphate pH […] h, unreliable (limited solubility)): ~ 10 μM
10 | O=C(CO[C@@H]1CCc2cc(Cl)ccc21)N1CC[C@H](c2ccccc2)C1 [ent-P2b] | 28.6 ± 2.9 |  | 
11 | CCOCC1CC12C(=O)Nc1cc(Cl)ccc12 (centres unmarked) [P7] |  | > 160 | 
12 | O=C(COC1CCc2cc(Cl)ccc21)N1CCC(c2ccccc2)C1 (centres unmarked) [P2] |  | 15 ± 0.1 | Kd (hDM2 [3]): 34 ± 13 µM
